Key:
[1] = biological target: T1, human recombinant HDAC1 (Homo sapiens, UniProt Q13547); assay: HDAC1 enzyme activity inhibition (HDAC Fluorimetric Drug Discovery Kit); format: biochemical; details: human recombinant HDAC1; IC50 calculated with GraphPad Prism; read-out: HDAC1
T1 construct: purchased Enzo Life Science, Inc. BML-SE456
In short: (§1)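 Five-fold compound dilutions incubated with […] recombinant enzyme and 10 μM fluorogenic Fluor de Lys substrate, 60 min at 30° C. Fluor de Lys Developer II then added for 30 min to generate the fluorescent read-out.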

[2] = biological target: T2, human recombinant HDAC6 (Homo sapiens, UniProt Q9UBN7); assay: HDAC6 enzyme activity inhibition (HDAC Fluorimetric Drug Discovery Kit); format: biochemical; details: for HDAC6 selectivity (fold): HDAC1 IC50 / HDAC6 IC50; for IC50: human recombinant HDAC6, IC50 calculated with GraphPad Prism
T2 construct: purchased Calbiochem Inc. 382180
T2 sequence (Q9UBN7 1-1215): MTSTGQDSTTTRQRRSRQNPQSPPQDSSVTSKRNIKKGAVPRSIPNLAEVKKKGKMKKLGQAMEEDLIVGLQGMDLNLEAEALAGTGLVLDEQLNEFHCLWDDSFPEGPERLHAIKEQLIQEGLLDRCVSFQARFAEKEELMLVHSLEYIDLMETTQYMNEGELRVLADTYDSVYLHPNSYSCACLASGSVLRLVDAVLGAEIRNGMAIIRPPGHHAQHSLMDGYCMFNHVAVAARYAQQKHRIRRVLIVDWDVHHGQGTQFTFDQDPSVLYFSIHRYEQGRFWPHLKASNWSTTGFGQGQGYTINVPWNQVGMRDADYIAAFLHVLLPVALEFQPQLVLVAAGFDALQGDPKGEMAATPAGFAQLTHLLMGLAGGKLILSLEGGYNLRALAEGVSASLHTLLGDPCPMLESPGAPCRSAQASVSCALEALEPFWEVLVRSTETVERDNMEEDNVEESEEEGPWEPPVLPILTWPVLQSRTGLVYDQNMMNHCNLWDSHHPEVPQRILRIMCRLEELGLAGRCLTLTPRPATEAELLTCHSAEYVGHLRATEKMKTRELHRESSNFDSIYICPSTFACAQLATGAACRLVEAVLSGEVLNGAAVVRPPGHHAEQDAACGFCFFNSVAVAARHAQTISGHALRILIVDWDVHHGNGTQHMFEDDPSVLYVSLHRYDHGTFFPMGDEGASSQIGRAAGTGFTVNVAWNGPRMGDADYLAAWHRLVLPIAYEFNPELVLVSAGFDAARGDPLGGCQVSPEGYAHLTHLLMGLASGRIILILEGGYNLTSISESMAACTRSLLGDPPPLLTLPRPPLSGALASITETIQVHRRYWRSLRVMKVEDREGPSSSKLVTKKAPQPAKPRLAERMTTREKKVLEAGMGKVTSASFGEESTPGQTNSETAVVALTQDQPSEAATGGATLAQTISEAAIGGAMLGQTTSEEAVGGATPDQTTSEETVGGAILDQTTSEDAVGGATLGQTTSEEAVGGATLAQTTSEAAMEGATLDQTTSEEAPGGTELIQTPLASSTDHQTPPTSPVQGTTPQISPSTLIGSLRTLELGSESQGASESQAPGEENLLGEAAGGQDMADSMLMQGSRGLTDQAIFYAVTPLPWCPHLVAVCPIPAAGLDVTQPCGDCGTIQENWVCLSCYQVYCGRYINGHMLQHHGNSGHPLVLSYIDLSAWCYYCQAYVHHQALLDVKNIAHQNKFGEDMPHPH
In short: as §1

[3] = tested on: hippocampal neurons from a Sprague-Dawley (SD) rat fetus; assay: Effect of HDAC6-specific inhibitor on axonal transport of mitochondria in amyloid-beta treated neurons; format: cell-based; details: transport velocity of mitochondria in neuronal axon after normalization; vehicle = 100%, amyloid beta treatment group = 0%; compound treatment for three hours
In short: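 Rat E17-18 hippocampal neurons exposed to amyloid-beta fragments […]; after 24 h (day 8 in vitro) compound added for 3 h, mitochondria stained with MitoTracker Red CMXRos. Confocal imaging every 1 s for 1 min gave per-mitochondrion velocity, normalized vehicle = 100%, amyloid-beta = 0%.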

T1 sequence (Q13547 whole entry): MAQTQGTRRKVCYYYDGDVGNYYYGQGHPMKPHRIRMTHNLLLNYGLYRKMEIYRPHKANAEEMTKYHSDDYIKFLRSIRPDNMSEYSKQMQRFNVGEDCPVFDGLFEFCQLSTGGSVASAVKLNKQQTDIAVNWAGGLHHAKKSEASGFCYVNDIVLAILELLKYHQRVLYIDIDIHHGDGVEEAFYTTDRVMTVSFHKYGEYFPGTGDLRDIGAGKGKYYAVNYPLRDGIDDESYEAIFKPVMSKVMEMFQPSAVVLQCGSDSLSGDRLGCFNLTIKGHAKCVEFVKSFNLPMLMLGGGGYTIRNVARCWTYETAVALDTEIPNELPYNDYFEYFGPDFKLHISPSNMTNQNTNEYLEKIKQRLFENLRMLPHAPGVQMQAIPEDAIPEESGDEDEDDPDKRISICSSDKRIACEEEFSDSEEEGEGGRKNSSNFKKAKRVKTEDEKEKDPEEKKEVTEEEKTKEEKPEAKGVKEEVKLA

Row | SMILES | IC50 [1] | HDAC6 selectivity (fold) [2] | IC50 [2] | Velocity distribution (%) [3]
1 | Cc1cc2ccc(-c3cn(Cc4ccc(-c5nnc(C(F)F)o5)cn4)nn3)cc2[nH]1 [Compound 4287, 2-(difluoromethyl)-5-(6-((4-(2-methyl-1H-indol-6-yl)-1H-1,2,3-triazol-1-yl)methyl)pyridin-3-yl)-1,3,4-oxadiazole] | > 50000 nM | 2092 fold | 23.9 nM | *** (***, >100%)
2 | Cc1cc2cc(-c3cn(Cc4ccc(-c5nnc(C(F)F)o5)cn4)nn3)ccc2[nH]1 [Compound 4289, 2-(difluoromethyl)-5-(6-((4-(2-methyl-1H-indol-5-yl)-1H-1,2,3-triazol-1-yl)methyl)pyridin-3-yl)-1,3,4-oxadiazole] | > 50000 nM | 416 fold | 12 nM | *** (***, >100%)
3 | CC(C)N1CC(N2CCC(c3cccc(-c4cn(Cc5ccc(-c6nnc(C(F)F)o6)cc5F)nn4)c3)CC2)C1 [Compound 4296] | > 50000 nM | 1547 fold | 32.3 nM | ** (**, 50%˜100%)
4 | CN1CCN(c2cccc(-c3cn(Cc4ccc(-c5nnc(C(F)F)o5)cc4)nn3)c2)CC1 [Compound 4336, 2-(difluoromethyl)-5-(4-((4-(3-(4-methylpiperazin-1-yl)phenyl)-1H-1,2,3-triazol-1-yl)methyl)phenyl)-1,3,4-oxadiazole] | > 50000 nM | 1543 fold | 32.4 nM | *** (***, >100%)
5 | CN1CCN(c2cccc(-c3cn(Cc4ccc(-c5nnc(C(F)F)o5)cc4F)nn3)c2)CC1 [Compound 4337, 2-(difluoromethyl)-5-(3-fluoro-4-((4-(3-(4-methylpiperazin-1-yl)phenyl)-1H-1,2,3-triazol-1-yl)methyl)phenyl)-1,3,4-oxadiazole] | > 50000 nM | 2092 fold | 23.9 nM | *** (***, >100%)
6 | FC(F)c1nnc(-c2ccc(Cn3cc(-c4ccc5cn[nH]c5c4)nn3)cc2)o1 [Compound 4341, 2-(4-((4-(1H-indazol-6-yl)-1H-1,2,3-triazol-1-yl)methyl)phenyl)-5-(difluoromethyl)-1,3,4-oxadiazole] | > 50000 nM | 1222 fold | 40.9 nM | ** (**, 50%˜100%)
7 | Fc1cc(-c2nnc(C(F)F)o2)ccc1Cn1cc(-c2ccc3cn[nH]c3c2)nn1 [Compound 4342, 2-(4-((4-(1H-indazol-6-yl)-1H-1,2,3-triazol-1-yl)methyl)-3-fluorophenyl)-5-(difluoromethyl)-1,3,4-oxadiazole] | > 50000 nM | 1453 fold | 34.4 nM | * (*, 0%˜50%)
8 | FC(F)c1nnc(-c2ccc(Cn3cc(-c4cccc5[nH]ncc45)nn3)nc2)o1 [Compound 4346, 2-(6-((4-(1H-indazol-4-yl)-1H-1,2,3-triazol-1-yl)methyl)pyridin-3-yl)-5-(difluoromethyl)-1,3,4-oxadiazole] | > 50000 nM | 9090 fold | 5.5 nM | *** (***, >100%)
9 | FC(F)c1nnc(-c2ccc(Cn3cc(-c4cccc5[nH]ncc45)nn3)cc2)o1 [Compound 4347, 2-(4-((4-(1H-indazol-4-yl)-1H-1,2,3-triazol-1-yl)methyl)phenyl)-5-(difluoromethyl)-1,3,4-oxadiazole] | > 50000 nM | 6849 fold | 7.3 nM | * (*, 0%˜50%)
10 | Fc1cc(-c2nnc(C(F)F)o2)ccc1Cn1cc(-c2cccc3[nH]ncc23)nn1 [Compound 4348, 2-(4-((4-(1H-indazol-4-yl)-1H-1,2,3-triazol-1-yl)methyl)-3-fluorophenyl)-5-(difluoromethyl)-1,3,4-oxadiazole] | > 50000 nM | 7352 fold | 6.8 nM | ** (**, 50%˜100%)
11 | Fc1cc(-c2nnc(C(F)F)o2)ccc1Cn1cc(-c2ccc3c(c2)CCN(C2CCC2)C3)nn1 [Compound 4361, 2-(4-((4-(2-cyclobutyl-1,2,3,4-tetrahydroisoquinolin-6-yl)-1H-1,2,3-triazol-1-yl)methyl)-3-fluorophenyl)-5-(difluoromethyl)-1,3,4-oxadiazole] | > 50000 nM | 668 fold | 74.8 nM | ** (**, 50%˜100%)
12 | Fc1cc(-c2nnc(C(F)F)o2)ccc1Cn1cc(-c2ccc3c(c2)CN(C2CCC2)CC3)nn1 [Compound 4366, 2-(4-((4-(2-cyclobutyl-1,2,3,4-tetrahydroisoquinolin-7-yl)-1H-1,2,3-triazol-1-yl)methyl)-3-fluorophenyl)-5-(difluoromethyl)-1,3,4-oxadiazole] | > 50000 nM | 1358 fold | 36.8 nM | *** (***, >100%)
13 | FC(F)c1nnc(-c2ccc(Cn3cc(-c4cccc(N5CCN(C6COC6)CC5)c4)nn3)cc2)o1 [Compound 4370, 2-(difluoromethyl)-5-(4-((4-(3-(4-(oxetan-3-yl)piperazin-1-yl)phenyl)-1H-1,2,3-triazol-1-yl)methyl)phenyl)-1,3,4-oxadiazole] | > 50000 nM | 715 fold | 69.9 nM | *** (***, >100%)
14 | FC(F)c1nnc(-c2ccc(Cn3cc(-c4cccc(N5CCN(C6CCC6)CC5)c4)nn3)cc2)o1 [Compound 4371, 2-(4-((4-(3-(4-cyclobutylpiperazin-1-yl)phenyl)-1H-1,2,3-triazol-1-yl)methyl)phenyl)-5-(difluoromethyl)-1,3,4-oxadiazole] | > 50000 nM | 917 fold | 54.5 nM | ** (**, 50%˜100%)
15 | CCN1CCN(c2cccc(-c3cn(Cc4ccc(-c5nnc(C(F)F)o5)cc4F)nn3)c2)CC1 [Compound 4373, 2-(difluoromethyl)-5-(4-((4-(3-(4-ethylpiperazin-1-yl)phenyl)-1H-1,2,3-triazol-1-yl)methyl)-3-fluorophenyl)-1,3,4-oxadiazole] | > 50000 nM | 335 fold | 14.9 nM | *** (***, >100%)
16 | Fc1cc(-c2nnc(C(F)F)o2)ccc1Cn1cc(-c2cccc(N3CCN(C4COC4)CC3)c2)nn1 [Compound 4375, 2-(difluoromethyl)-5-(3-fluoro-4-((4-(3-(4-(oxetan-3-yl)piperazin-1-yl)phenyl)-1H-1,2,3-triazol-1-yl)methyl)phenyl)-1,3,4-oxadiazole] | > 50000 nM | 1428 fold | 35 nM | * (*, 0%˜50%)
17 | CN1CCC(Nc2cccc(-c3cn(Cc4ccc(-c5nnc(C(F)F)o5)cc4F)nn3)c2F)CC1 [Compound 4431, N-(3-(1-(4-(5-(difluoromethyl)-1,3,4-oxadiazol-2-yl)-2-fluorobenzyl)-1H-1,2,3-triazol-4-yl)-2-fluorophenyl)-1-methylpiperidin-4-amine] | > 50000 nM | 2631 fold | 19 nM | *** (***, >100%)
18 | CC(C)N1CCC(Nc2cccc(-c3cn(Cc4ccc(-c5nnc(C(F)F)o5)cc4F)nn3)c2F)CC1 [Compound 4432, N-(3-(1-(4-(5-(difluoromethyl)-1,3,4-oxadiazol-2-yl)-2-fluorobenzyl)-1H-1,2,3-triazol-4-yl)-2-fluorophenyl)-1-isopropylpiperidin-4-amine] | > 50000 nM | 2427 fold | 20.6 nM | *** (***, >100%)

— patent US20230257372A1 (CHONG KUN DANG PHARMACEUTICAL CORP., priority 2020, published 2023)
